# pIC50: −log10 of the molar value. Several values for one entry are separate records, joined by “and”; a condition that tells them apart may be missing. Equal entries are not always repeated. Where two headings read alike, the source gives them in different places.
# Tests used:
# Assay type in all cases: cell-based
# [1] = test system: A2780Cis (cisplatin-resistant human ovarian cancer); test: In vitro cytotoxicity, SRB assay, A2780Cis; details: for IC50: read-out: IC50 (nM) A2780Cis
# [2] = test system: BALB/3T3 (normal mouse fibroblasts); test: In vitro cytotoxicity, SRB assay, normal BALB/3T3 fibroblasts; details: for IC50: BALB/3T3 normal mouse fibroblasts, read-out: IC50 (nM) BALB3T3 normal cells
# [3] = test system: MV-4-11 (human biphenotypic leukaemia); test: In vitro cytotoxicity, MTT assay, MV-4-11
# cancer cells = test: In vitro cytotoxic activity on the panel of cancer cell lines (MTT/SRB), general statements; details: Tables 3.1, 3.2, 4 and 5; parent compound salinomycin
# [4] = test system: NCI-H23 (human lung cancer); test: In vitro cytotoxicity, SRB assay, NCI-H23; details: 72 h with compound, SRB, n/a = non-active compound, read-out: NCI-H23 IC50
# [5] = test system: PFSK-1 (malignant primitive neuroectodermal tumour); test: In vitro cytotoxicity, SRB assay, PFSK-1; details: 72 h with compound, SRB, n/a = non-active compound, read-out: PFSK-1 IC50
# [6] = test system: A2780 (human ovarian cancer); test: In vitro cytotoxicity, SRB assay, A2780; details: 72 h with compound, SRB, n/a = non-active compound, read-out: A2780 IC50
# A375 (human melanoma) = test: In vitro cytotoxicity, SRB assay, A375; details: 72 h with compound, SRB, n/a = non-active compound, read-out: A375 IC50
# Hs294T (human melanoma) = test: cells; details: for pIC50: 72 h with compound, SRB, n/a = non-active compound, read-out: Hs294T IC50; for IC50: Table 4, Hs294T human melanoma cells, read-out: IC50 (nM) Hs294T
# [7] = test system: PLC/PRF/5 (human liver cancer); test: cells; details: for pIC50: 72 h with compound, SRB, n/a = non-active compound, read-out: PLC/PRF/5 IC50; for IC50: Table 4, PLC/PRF/5 human liver cancer cells, read-out: IC50 (nM) PLC/PRF/5
# [8] = test system: SNU-16 (human gastric cancer); test: cells; details: for pIC50: 72 h with compound, MTT, n/a = non-active compound, read-out: SNU-16 IC50; for IC50: Table 4, SNU-16 human gastric cancer cells, read-out: IC50 (nM) SNU-16
# [9] = test system: KG-1 (human acute myeloid leukaemia); test: In vitro cytotoxicity, MTT assay, KG-1; details: Homo sapiens; 72 h with compound, MTT; n/a = non-active compound
# [10] = test system: MIA PaCa-2 (human pancreatic cancer); test: cells; details: for pIC50: 72 h with compound, SRB, n/a = non-active compound, read-out: MIA PaCa-2 IC50; for IC50: Table 4, MIA PaCa-2 human pancreatic cancer cells, read-out: IC50 (nM) MIA PaCa-2
# [11] = test system: NCI-H358 (human lung cancer); test: cells; details: Table 4; NCI-H358 human lung cancer cells; read-out: IC50 (nM) NCI-H358
# [12] = Homo sapiens, MV4-11, read-out: IC50 (nM) MV4-11
SMILES,SI A2780Cis [1],"IC50 ([1]; Homo sapiens, A2780cis) [nM]",IC50 ([2]; Table 5) [nM],SI MV4-11 [3],"IC50 [3, 12] [nM]",anti-proliferative effect compared to that of the parent compound (cancer cells),IC50 [7] [nM],IC50 [8] [nM],IC50 [10] [nM],IC50 [11] [nM],other results
CC[C@@H](C(=O)[C@@H](C)[C@@H](O)[C@H](C)[C@@H]1O[C@@H]([C@@H](CC)C(=O)O)CC[C@@H]1C)[C@H]1O[C@]2(C=C[C@@H](NC(=O)C(C)(C)CCl)[C@]3(CC[C@@](C)([C@H]4CC[C@](O)(CC)[C@H](C)O4)O3)O2)[C@H](C)C[C@@H]1C [FLC-00473-1•Na],179.1,0.72,129,62.7,2.05,several times more potent compared to that of the parent compound,–,–,–,–,–
CC[C@@H](C(=O)[C@@H](C)[C@@H](O)[C@H](C)[C@@H]1O[C@@H]([C@@H](CC)C(=O)O)CC[C@@H]1C)[C@H]1O[C@]2(C=C[C@@H](NS(=O)(=O)c3c(C)noc3C)[C@]3(CC[C@@](C)([C@H]4CC[C@](O)(CC)[C@H](C)O4)O3)O2)[C@H](C)C[C@@H]1C [FLC-00506-1•Na],100.3,0.92,92.5,35.3,2.62,several times more potent compared to that of the parent compound,–,–,–,–,–
"CC[C@@H](C(=O)[C@@H](C)[C@@H](O)[C@H](C)[C@@H]1O[C@@H]([C@@H](CC)C(=O)O)CC[C@@H]1C)[C@H]1O[C@]2(C=C[C@@H](O)[C@]3(CC[C@@](C)([C@H]4CC[C@](O)(CC)[C@H](C)O4)O3)O2)[C@H](C)C[C@@H]1C [FLC-00001 (SAL), Salinomycin]",–,–,–,–,–,–,504,145,304,600,"pIC50 ([4]; Homo sapiens, NCI-H23): 6.45; pIC50 ([5]; Homo sapiens, PFSK-1): 6.47; pIC50 ([6]; Homo sapiens, A2780): 6.92; pIC50 (A375 (human melanoma); Homo sapiens, A-375): 6.24; pIC50 (Hs294T (human melanoma); Homo sapiens, Hs 294T): 5.67; IC50 (Hs294T (human melanoma); Hs 294T): 2160 nM; pIC50 ([7]; Homo sapiens, PLC-PRF-5): 6.30; pIC50 ([8]; Homo sapiens, SNU-16): 6.84; pIC50 [9]: 6.37; pIC50 ([10]; Homo sapiens, MIA PaCa-2): 6.52"
CC[C@@H](C(=O)[C@@H](C)[C@@H](O)[C@H](C)[C@@H]1O[C@@H]([C@@H](CC)C(=O)O)CC[C@@H]1C)[C@H]1O[C@]2(C=C[C@@H](NC(=O)NC(C)(C)C)[C@]3(CC[C@@](C)([C@H]4CC[C@](O)(CC)[C@H](C)O4)O3)O2)[C@H](C)C[C@@H]1C [FLC-00593-1•Na],≈7220,< 0.01,72.2,≈7220,< 0.01,several times more potent compared to that of the parent compound,–,–,–,–,–
CC[C@@H](C(=O)[C@@H](C)[C@@H](O)[C@H](C)[C@@H]1O[C@@H]([C@@H](CC)C(=O)O)CC[C@@H]1C)[C@H]1O[C@]2(C=C[C@@H](NC(=O)N[C@@H](C)C(C)(C)C)[C@]3(CC[C@@](C)([C@H]4CC[C@](O)(CC)[C@H](C)O4)O3)O2)[C@H](C)C[C@@H]1C [FLC-00606-1•Na],≈5240,< 0.01,52.4,≈5240,< 0.01,several times more potent compared to that of the parent compound,–,–,–,–,–
"N.N.[Cl][Pt][Cl] [Cisplatin, cisplatin, reference compound]",–,–,1390,–,–,–,1580,2330,2360,2550,"pIC50 [4]: 5.63; pIC50 [5]: 5.82; pIC50 [6]: 6.75; A2780Cis RI [1]: 14.6; pIC50 ([1]; read-out: A2780Cis IC50): 5.58; IC50 [1]: 2610 nM and 2870 nM; pIC50 (A375 (human melanoma)): 6.39; pIC50 (Hs294T (human melanoma)): 6.13; IC50 (Hs294T (human melanoma)): 736 nM; pIC50 [7]: 5.80; pIC50 [8]: 5.63; pIC50 [10]: 5.63; IC50 ([2]; Table 4): 1390 nM; pIC50 ([2]; normal cells, 72 h with compound, SRB, n/a = non-active compound, read-out: BALB/3T3 IC50): 5.86; IC50 ([3]; read-out: IC50 (nM) MV4-11): 166 nM"
